The values below come from US20240307396A1, “COMPOSITIONS AND METHODS FOR TREATING CELIAC DISEASE” (THE REGENTS OF THE UNIVERSITY OF CALIFORNIA, priority 2021, published 2024).

Assay [1] deals with Type II refractory celiac disease. The experiment in a line: Trend of pertinent laboratory values in a Type II RCD patient across sequential treatments. The assay is classed as in vivo, human. The arrangement: CRP: unit not given beside the values. Particulars: for CRP / DGP IgA / TTG IgA: same patient, Budesonide 3 m, Infliximab 1 y, Cladribine 1.5 y, Tofacitinib 2 y. The text has this:
A person with a past medical history significant for Hashimoto's thyroiditis and positive celiac serology was initially seen for protein-losing enteropathy. Although they had previously been on a gluten-free diet (GFD) for 1 year after first being diagnosed with CD, they re-introduced gluten 3 years before pregnancy without symptoms. They stayed on gluten until one-month postpartum when they developed epigastric pain, nausea, diarrhea with 2-3 loose to watery stools daily, along with significant bilateral lower extremity edema.
At the time of initial hospital admission, they were five months postpartum with the above symptomatology. […] They were discharged to outpatient setting on a GFD and referred to a CD clinic for management.
(§1) During the initial outpatient visit in the CD clinic they were hypotensive with anasarca, diagnosed with celiac crisis, and urgently sent for readmission. They were treated with 72 hours of intravenous solumedrol 20 mg every 12 hours and then transitioned to open-capsule protocol budesonide 3 mg three times a day.
(§2) They were therefore switched to experimental infliximab after a total of 5 months on budesonide.
(§3) The patient was now about 18 months out from diagnosis of Type II RCD, which is associated with about 50% risk of lymphoma in 5 years, so it was imperative to find an effective regimen. […] Discussion of associated adverse events, including thromboembolic ones, was conducted, and pre-treatment labs including lipid profile were done. […] This was the first-time the patient achieved such results in the 2 years since presenting with celiac crisis. […] Their tofacitinib dose will be reduced to 5 mg twice daily to reduce associated adverse events.

Assay [2] shares this test system. Put plainly: Endoscopic and clinical response of the Type II RCD patient. The assay is classed as in vivo, human. Particulars: for Endoscopic finding (ulcerative jejunitis / duodenopathy): budesonide 3 months, infliximab 9 months, tofacitinib 10 mg twice daily, four months. As for the experimental part: as §1, §2, §3
However, malabsorption, malignancy, morbidity and mortality are known complications in Type II RCD (Cellier et al. (2000); Ilus et al. (2014); Weiss (2021) Diagnosis and Management of Gluten-Associated Disorders: A clinical casebook. Springer). Currently, the best clinical practice in managing RCD is to advocate for experimental medication treatment in adjunct to a strict gluten-free diet (GFD). Yet the same guidelines acknowledge the absence of treatments with proven efficacy in Type II RCD (Rubio-Tapia et al. (2013) Am. J. Gastroenterol., 108(5):656-677; Al-Toma et al. (2019) United European Gastroenterol. J.: 7(5):583-613). The European guidelines discuss the potential use of AMG714 or JAK inhibitor after corticosteroids, immunomodulators, and chemotherapy in the most refractory of CD cases. […] Additional studies are needed, but the therapy disclosed herein may be utilized in uncomplicated CD or non-responsive CD (NRCD) in combination with a GFD, or even as a substitute to one.

Assay [3] has the same test system. Put plainly: Small bowel biopsy histology (modified Marsh classification) and immunophenotype in the Type II RCD patient. Particulars: for Pathology (Marsh lesion): same patient, Budesonide 3 m, Infliximab 1 y, Cladribine 1.5 y, Tofacitinib 2 y; for Marsh lesions on biopsy: tofacitinib 10 mg twice daily, four months. The assay is classed as in vivo, human.
Text: CD can be characterized using the modified Marsh classification scheme. A subject having a Marsh 0 score would be characterized as either healthy or if previously diagnosed with CD, as “CD in remission”. A Marsh 1 score is non-specific, rarely seen in CD, unless already on a GFD during endoscopy, and may be observed in subjects having dermatitis herpetiformis (DH) or in family members of CD patients, but also with other conditions as infections and adverse response to medications. A Marsh 2 score is rare and is sometimes observed in DH and again in CD patients already on a GFD. Marsh 3 score is characteristic of the spectrum of changes observed in symptomatic CD patients.
as §1, §2, §3

For another assay, the target named is IL-15 (Homo sapiens, UniProt P40933). Particulars: cited from earlier work.
[4] abbreviates: budesonide 3 months, infliximab 9 months.

Entries after “also recorded” stand apart in the source; their conditions may differ. Where only a bound is given, the exact number is not on record here.

IL-15, sequence (P40933 49-162): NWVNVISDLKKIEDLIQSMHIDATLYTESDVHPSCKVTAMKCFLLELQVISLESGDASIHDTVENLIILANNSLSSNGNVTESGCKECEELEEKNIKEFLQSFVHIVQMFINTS

Regarding `Nc1nc(Cl)nc2c1ncn2[C@H]1C[C@H](O)[C@@H](CO)O1` [Cladribine, cladribine], in assay [1], the CRP is reported as under 0.3, the “DGP IgA” value was 57.7 (H) and the “TTG IgA” value is 44.3 (H). The “Resolution of RCD” value in assay [2] (one dose of cladribine 10 mg IV) is recorded as “without resolution of their RCD”. Further, the “Pathology (Marsh lesion)” value in assay [3] is given as “Marsh 3A”.

As for AMG714: anti-IL-15 mAb, the “Results of AMG714” value with IL-15 is “positive yet statistically insignificant results”.

Turning to `C[C@@H]1CCN(C(=O)CC#N)C[C@@H]1N(C)c1ncnc2[nH]ccc12` [Tofacitinib, tofacitinib], the CD serologies result in assay [1] (four months after start of tofacitinib 10 mg twice daily) is on record as “normalization of their CD serologies”. Moreover, in assay [1], the CRP was under 0.3, the “DGP IgA” value was 70 (H) and the “TTG IgA” value stood at 5. Further, the “Endoscopic finding (ulcerative jejunitis / duodenopathy)” value in assay [2] is listed as “reversed severe therapy-refractory duodenopathy; also recorded: improvement in their duodenopathy”. Also, the Symptoms entry in assay [2] (during tofacitinib therapy) is listed as “ameliorated symptoms of CD; also recorded: feeling well with minimum symptoms”. Besides, in assay [3] (setting [4]), the “Marsh lesions on biopsy” value is “Marsh 1-2”. For the same molecule, the “Duodenal bulb biopsy histology (H&E)” value in assay [3] (during tofacitinib therapy, FIG. 2D) was “normal villous architecture with focal areas of crypt hyperplasia and an increase in intraepithelial lymphocytes”. For the same molecule, the “Pathology (Marsh lesion)” value in assay [3] is listed as “Marsh 1-2”.

For infliximab, in assay [1], the CRP is given as under 0.3, the “DGP IgA” value is 53.9 (H) and the “TTG IgA” value is listed as 33.1 (H). In assay [2], the “Endoscopic finding (ulcerative jejunitis / duodenopathy)” value is “resolution of their ulcerative jejunitis”. In assay [3] (setting [4]), the “T-cell aberrancy / CD8 expression in intraepithelial T-lymphocytes” value was “unchanged T-cell aberrancy” and the “Marsh lesions on biopsy” value is recorded as “Marsh 3A”. Further, in assay [3], the “Pathology (Marsh lesion)” value is “Marsh 3A”.

On to `CCCC1O[C@@H]2C[C@H]3[C@@H]4CCC5=CC(=O)C=C[C@]5(C)[C@H]4[C@@H](O)C[C@]3(C)[C@]2(C(=O)CO)O1` (stereo partly shown) [Budesonide, budesonide], for which, in assay [1], the CRP is under 0.3, the “DGP IgA” value was found to be 186.9 and the “TTG IgA” value came out at 152.3.
